Tests used:
Format in all cases: cell-based
[1] = system: Breast cancer cells MCF-7 tumor cell aggregates; experiment: 5-Fu drug sensitivity of tumor cell aggregates on the cellular traction force detection device; conditions: MCF-7 aggregates, 200 μM, cultured for one day, FIGS. 13A and 13B
Description: S1, Generation of tumor cell aggregates: FN 50 μg/mL is coated on the top of the micro-/nano-pillars of the cellular traction force detection device and sterilized with UV light for 30 minutes. Breast cancer cells MCF-7 (approximately 1×10^5 to 9×10^5 cells) are seeded on the surface of the micro-/nano-pillars of the cellular traction force detection device (number of micro-/nano-pillars not limited) and then cultured in 3dGRO™ Spheroid Medium (S3077) for more than three days to guide the formation of tumor cell aggregates.
S2, Applying the generated tumor cell aggregates to 5-Fu drug sensitivity experiments: 200 μM of 5-Fu is added to the tumor cell aggregates and cultured for one day. In the experiment, cellular traction force detection devices with tumor cell aggregates (along with the culture medium) before and after the addition of 5-Fu are monitored using the information acquisition unit (CCD sensor) within the cellular identification device to capture light reflection signals.

A549 cells [2] = experiment: Cell vitality reflected by cellular traction force in A549 cells treated with 5-FU; conditions: for time of significant decrease in cellular traction force: FIG. 11C
Description: (§1) Specifically, in the present embodiment, non-small cell lung cancer A549 cells are cultured on multiple cellular traction force detection devices, and then are treated with various doses of cell proliferation inhibitor 5-fluorouracil (5-FU). Subsequently, the cellular traction forces at different time are monitored by using the cellular identification system described in the twentieth embodiment. Cell proliferation and cytotoxicity are monitored using the CCK-8 kit, with cell vitality measured by the MTT assay serving as a control group, yielding the data for FIGS. 11B and 11C.

A549 cells [3] = experiment: Cell vitality by MTT assay in A549 cells treated with 5-FU
Description: as §1

[4] = various doses of 5-FU, FIGS. 11B and 11C

Compound: O=c1[nH]cc(F)c(=O)[nH]1 [5-FU, 5-fluorouracil]
- reflection signals of tumor cell aggregates after treatment [1]: significantly weaken
- time of significant decrease in cellular traction force (A549 cells [2]; 0.5 μM treatment dose): 6 h
- time of significant decrease in cellular traction force (A549 cells [2]; 1 μM treatment dose): 3 h
- cellular vitality as reflected by traction forces compared to control group DMSO (A549 cells [2]; different doses, treatment for 24 hours, FIG. 11B): decreases more significantly
- cell vitality reflected by cellular traction forces (A549 cells [2]; [4]): dose-dependent decrease
- changes in cell vitality measured by the MTT assay (A549 cells [3]; after 12 hours of treatment, FIG. 11C): not noticeable
- cell vitality measured by the traditional MTT assay (A549 cells [3]; [4]): dose-dependent decrease
